In one series the test system is human prostate cells. As to the kind of experiment: Three day cell growth inhibition, human prostate cells. The class given is cell-based. The note with it: 3 days growth inhibition. An excerpt: FIG. 1a is a schematic flow of probe synthesis and development strategy. […] Values are mean±SEM of a single experiment in replicates of N=4, with similar findings in multiple separate experiments (also N=4). […] Values are mean±SEM of a single experiment in replicates of N=24, with similar findings in a separate experiment (also N=24). *Denotes Student's t test P value <0.05, compared to controls. […] Values are mean±SEM from N>2 separate experiments, each in replicates of N=3. […] Values are the mean±SD number of total, CFU-GM, CFU-GEMM or BFU-E colonies at 14 days after treatment with KBU2046, from a single experiment in replicates of N=2. […] Values are the mean±SD of a single experiment, with similar results seen in a separate experiment, both in replicates of N=2.
Assays were in replicates of N=3, and were repeated.

A further series has as its system 20 phosphatases. As to the kind of experiment: PhosphataseProfiler assay platform (Millipore). Format: biochemical. As to conditions: competition with substrate protein. An excerpt:
Kinase assay system #3. KinaseProfiler™ and PhosphataseProfiler™ assay platforms (Millipore). This platform is radiometric-based (considered gold standard). It measures competition with respect to ATP for kinases and substrate protein for phosphatases. Most proteins were expressed via an insect-based system, and it evaluates a panel of 284 kinases and 20 phosphatases. […] Important negative findings include: MKK4, MKK6, p38 MAPK, MAPKAPK2, RAF1, ERK, MEK1, JNK1, 2 and 3, and numerous other MAPK cascade-associated kinases.

In another series the target is T1, estrogen receptor (ER) (Homo sapiens, UniProt P03372).
T1 construct: estrogen receptor positive MCF-7 cells; endogenous in cells; host or cells: MCF-7
As to the kind of experiment: pERE-Luc estrogen receptor reporter assay in MCF-7 cells. The class given is cell-based. As to conditions: 24 hours, micromolar concentrations. The text has this:
Values are the mean±SD of a single experiment, with similar results seen in a separate repeat experiment, both in replicates of N=2.
Constructs, Transfection, and Luciferase Assays. Constructs were purchased or gifts: constitutive active MEK4EE (MAP2K4-EE; residues 37-399; Addgene, plasmid 14813), pRL-TK-Renilla luciferase (Promega), pCMV-β-galactosidase (Agilent Technologies), and pcDNA-GFP (Invitrogen), HSP90β was from Pawel Bieganowski (Mossakowski Medical Research Center PAS, Poland) (Zurawska, A. et al., Biochim Biophys Acta 1803, 575-83 (2010)), estrogen responsive promoter-luciferase reporter construct, pERE-Luc, was from Craig Jordan (Georgetown University) (Catherino, W. H. et al., Cancer Lett 92, 39-47 (1995)), human CDC37 in pET15b plasmid was from Avrom Caplan (City College of New York) (Rao, J. et al., J Biol Chem 276, 5814-20 (2001)). siRNA used Dharmacon ON-Targetplus SMARTpool™ siRNA directed against HSP90β (cat #L-005187-00-0010) non-targeting siRNA (cat #D-001810-10-05), used TransIT-LT1 Transfection Reagent (Mirus Bio LLC), or with Dharmafect Duo (Thermo Scientific, Lafayette, Colo.) for co-delivery of plasmid. Luciferase assays were performed as described (Breen, M. J. et al., PLoS One 8, e72407 (2013)).
Luciferase activity was measured, normalized to that of β-gal, and values expressed as the percent of untreated vector control cells.
Background: Reporter assays use an easily measured gene product as a stand-in for the process of interest.

Series [1] concerns the target T2, client protein binding to CDC37/HSP90β heterocomplexes (Homo sapiens, UniProt P08238+Q16543).
T2 construct: expressed in transfected cells; host or cells: HEK293T
The series can be described thus: Modified LUMIER assay. Format: cell-based. The method, then:
(§1) HEK293T cells were transfected with 1 of 420 different protein kinases, treated with 10 μM KBU2046 (N=5 replicates) or vehicle control (N=5) for three days, and LUMIER assays performed. The N=17 kinases that gave significant findings (Student's t-test <0.05) in the same direction in each of two separate experiments are depicted. Each separate treatment and kinase condition in each of two separate experiments was conducted in replicates of N=5. […] FIGS. 6c and 6d show the results of the wound healing assay. PC3 cells were transfected with siRNA targeting RAF1 (si-Raf1) or non-targeting siRNA (si-control), treated with KBU2046 or vehicle as above, and RAF1 protein measured by Western blot (c) and effects upon wound healing measured (d). […] Purified recombinant HSP90β, CDC37, and RAF1 were combined with KBU2046, as indicated, incubated in an in vitro kinase assay for the indicated times, and Western blot for RAF1-Ser^338 phosphorylation performed. FIGS. 6f and 6g show the effect on HSP90β/CDC37 heterocomplex formation and function in vitro. Purified recombinant HSP90β, CDC37, RAF1, SGK3 or MAP3K6 were combined and treated with KBU2046 or vehicle control, as indicated, incubated in an in vitro kinase assay for the indicated times, and Western blot performed, as denoted. Experiments were repeated at separate times at least once, with similar results.
(§2) To examine whether this is associated with an altered signature of bound client kinase proteins, a modified LUMIER assay (Taipale, M. et al., Cell 150, 987-1001 (2012)) was performed to detect KBU2046-induced changes in client protein binding to CDC37/HSP90β heterocomplexes in intact cells. […] These findings are in contrast to classical inhibitors of HSP90 function which have been shown, through this same assay, to affect the binding of the majority client kinase proteins (Taipale, M. et al., Cell 150, 987-1001 (2012)).
(§3) LUMIER assay. The LUMIER assay was performed as described (Taipale, M. et al., Cell 150, 987-1001 (2012)).
(§4) Experiments had N=5 vehicle treated control plus N=5 KBU2046 treated separate wells of cells. Those yielding a t-test p value <0.05 in experiment #1, or those whose values were at or below baseline, were repeated in experiment #2. […] Of 420 kinase proteins tested, 17 (4%) met these criteria (FIG. 6a). For these 17 kinases, the experiment was repeated except that HEK293T cells were treated with TGFβ for the last 24 hrs of the 3 day incubation (FIG. 6b).

In series [2] the test system is client protein binding to CDC37/HSP90β heterocomplexes. The series can be described thus: Modified LUMIER assay. The class given is cell-based. The procedure:
as §1, §2, §3, §4

T2 sequence (P08238 2-724): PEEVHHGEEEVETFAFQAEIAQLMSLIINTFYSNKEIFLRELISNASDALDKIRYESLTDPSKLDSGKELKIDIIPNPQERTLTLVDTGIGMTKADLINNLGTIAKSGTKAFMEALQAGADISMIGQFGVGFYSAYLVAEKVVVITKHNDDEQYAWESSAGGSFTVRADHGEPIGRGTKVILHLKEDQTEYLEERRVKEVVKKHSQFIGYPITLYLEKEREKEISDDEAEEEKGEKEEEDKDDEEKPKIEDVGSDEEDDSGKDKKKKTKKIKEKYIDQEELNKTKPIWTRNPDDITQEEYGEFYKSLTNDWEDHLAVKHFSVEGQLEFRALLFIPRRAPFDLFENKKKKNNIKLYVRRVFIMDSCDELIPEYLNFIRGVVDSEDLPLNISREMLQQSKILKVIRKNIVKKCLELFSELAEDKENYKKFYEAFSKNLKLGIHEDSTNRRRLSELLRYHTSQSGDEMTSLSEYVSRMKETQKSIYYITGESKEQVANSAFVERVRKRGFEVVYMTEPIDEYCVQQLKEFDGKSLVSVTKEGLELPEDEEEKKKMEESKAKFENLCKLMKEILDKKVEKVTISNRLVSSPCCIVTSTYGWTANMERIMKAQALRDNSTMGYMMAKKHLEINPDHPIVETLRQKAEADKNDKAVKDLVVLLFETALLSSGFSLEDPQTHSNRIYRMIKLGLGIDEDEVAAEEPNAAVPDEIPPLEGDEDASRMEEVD
T2 sequence (Q16543 whole entry): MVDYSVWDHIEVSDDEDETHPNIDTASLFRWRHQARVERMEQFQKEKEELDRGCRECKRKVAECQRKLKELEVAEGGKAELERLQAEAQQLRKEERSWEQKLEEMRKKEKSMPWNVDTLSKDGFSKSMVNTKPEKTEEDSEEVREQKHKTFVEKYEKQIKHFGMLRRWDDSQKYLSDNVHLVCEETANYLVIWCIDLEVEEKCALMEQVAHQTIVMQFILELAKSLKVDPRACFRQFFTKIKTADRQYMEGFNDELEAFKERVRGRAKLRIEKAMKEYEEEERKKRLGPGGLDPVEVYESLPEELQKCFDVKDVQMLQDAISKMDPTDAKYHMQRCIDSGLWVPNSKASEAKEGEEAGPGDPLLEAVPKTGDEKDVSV
T1 sequence (P03372 whole entry): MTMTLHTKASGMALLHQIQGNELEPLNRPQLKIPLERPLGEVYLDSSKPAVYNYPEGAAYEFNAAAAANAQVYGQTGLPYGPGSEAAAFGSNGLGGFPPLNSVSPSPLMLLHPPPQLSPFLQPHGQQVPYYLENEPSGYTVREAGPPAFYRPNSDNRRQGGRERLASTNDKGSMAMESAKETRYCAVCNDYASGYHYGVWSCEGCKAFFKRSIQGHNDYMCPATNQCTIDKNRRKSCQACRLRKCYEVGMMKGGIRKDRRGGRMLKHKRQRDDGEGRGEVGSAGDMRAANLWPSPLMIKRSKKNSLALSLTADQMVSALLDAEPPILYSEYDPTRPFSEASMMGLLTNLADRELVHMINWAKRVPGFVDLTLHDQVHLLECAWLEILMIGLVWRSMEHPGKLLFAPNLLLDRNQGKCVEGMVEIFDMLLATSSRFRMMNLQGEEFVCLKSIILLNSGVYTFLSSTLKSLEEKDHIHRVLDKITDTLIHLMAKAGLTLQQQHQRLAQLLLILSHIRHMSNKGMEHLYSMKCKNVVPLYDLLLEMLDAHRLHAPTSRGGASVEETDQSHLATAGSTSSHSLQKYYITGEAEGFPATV

As to `O=C1c2ccccc2OCC1c1ccc(F)cc1` (racemic) [KBU2046, (±)-3(4-fluorophenyl)chroman-4-one], in the series with human prostate cells, the “toxicity to human prostate cells” value is given as “not toxic”. Also, in the series with 20 phosphatases, the “inhibition of phosphatase activity” value was “No evidence supports inhibition of phosphatase activity”. Besides, the “activation of the estrogen receptor” value at estrogen receptor (ER) is on record as “does not activate the estrogen receptor (ER)”. In addition, in series [1] (TGFβ treated cells), the “RAF1 binding to complexes” value was “decreased binding”, the “RIPKI binding to complexes” value is given as “decreased” and the “SGK3 binding to complexes” value is reported as “increased”. For the same compound, the “MAP3K6 binding to complexes” value in series [1] (intact cells) was “increases MAP3K6 binding to complexes”. Besides, in series [2] (10 μM, 3 days), the “number of kinases with decreased binding” value is 7 and the “number of kinases with increased binding” value was 10. Further, the “share of kinases whose binding was significantly changed” value in series [2] (of 420 kinase proteins) was determined as 4%. In series [2] (of 420 kinase proteins, 10 μM, 3 days), the “number of kinases whose binding was significantly changed” value was determined as 17.

The values are drawn from patent US20210293825A1, “METHODS FOR PRECISION THERAPEUTIC TARGETING OF HUMAN CANCER CELL MOTILITY AND KITS THEREOF” (UNITED STATES GOVERNMENT AS REPRESENTED BY THE DEPARTMENT …, priority 2018, published 2021).
